Values joined by “and” are separate entries in the source; they are usually repeats but may differ in a detail not shown here. Equal entries are not always repeated.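 The compound was tested at five concentrations on cells cultured in 96-well plates, with a 48-hour exposure period. The concentration for 50% growth inhibition is given as GI50. TGI is the concentration that stops growth completely.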
Assays:
Test in all cases: NCI tumour cell line growth inhibition, 48 h
[1] = tested on: BT-549 breast
[2] = tested on: CAKI-1 renal
[3] = tested on: EKVX NSCLC
[4] = tested on: HCT-116 colon
[5] = tested on: HOP-92 NSCLC
[6] = tested on: K-562 leukemia
[7] = tested on: PC-3 prostate
[8] = tested on: RXF 393 renal
[9] = tested on: SK-OV-3 ovarian
[10] = tested on: SNB-75 CNS

SMILES | GI50 [1] [µM] | TGI [1] [µM] | GI50 [2] [µM] | TGI [2] | GI50 [3] [µM] | TGI [3] [µM] | GI50 [4] [µM] | TGI [4] [µM] | GI50 [5] [µM] | TGI [5] [µM] | GI50 [6] [µM] | TGI [6] [µM] | GI50 [7] [µM] | TGI [7] | GI50 [8] [µM] | TGI [8] | GI50 [9] [µM] | TGI [9] [µM] | GI50 [10] [µM] | TGI [10] [µM]
CCOC(=O)[C@@H](N)CCC(=O)N[C@@H](CSCc1ccccc1)C(=O)N[C@@H](C(=O)OCC)c1ccccc1 | 17.5 | 33 | 22.2 | > 53 µM | 25.2 | > 73.3 | 18.3 | 36.8 | 10.9 | 24.2 | 22.2 | 75 | 16.5 | 37.3 µM | 14.1 | 27.5 µM | 16.6 | 31.5 | 13 | 26.4
CN(C)C(=O)c1cc2cnc(Nc3ccc(-c4csc5c(=S)cc(N6CCOCC6)oc45)cc3)nc2n1C1CCCC1 | 0.698 | 3.83 | 0.368 | > 13.3 µM | 0.792 | > 13.7 | 0.242 | > 50 | 0.115 | – | 0.939 | > 50 | 0.312 | > 10.8 µM | 0.139 | 0.495 µM | 2.28 | > 50 | 0.314 | 2.04
Oc1ccccc1C(Sc1nc2ccccc2s1)Sc1nc2ccccc2s1 | – | > 100 | – | > 100 µM | – | 77.9 | – | > 100 | – | 95 | – | > 100 | – | > 100 µM | – | > 100 µM | – | > 100 | – | > 100
COc1nc2ccccc2cc1-c1nc2c(cnn2-c2ccc(Br)cc2)c(=O)[nH]1 | 0.156 | > 25.1 | 0.0196 | > 50 µM | 0.0817 | > 50 | 0.0196 | > 50 | 0.127 | > 28.3 | 0.0182 | 13.4 | 0.0231 | > 50 µM | 0.0163 | 0.245 µM | 0.0638 | 24.5 | 0.0161 | 1.46
COc1cc2c(c(OC)c1OC)-c1ccc(OC)c(=O)cc1[C@@H](NC(=O)c1ccccc1)CC2 | < 0.003 | 30 | 0.029 | 30 µM and 61.2 µM | > 30 | > 100 | < 0.003 | – | – | 6.68 | < 0.003 | – | < 0.003 | 30 µM and > 56.5 µM | < 0.003 | 8.22 µM and 3.18 µM | < 0.003 | – | – | 33.8
N=C1C(c2nc3ccccc3s2)=C(O)CN1c1cc(C(F)(F)F)ccc1Cl | 43.4 | > 100 | 4.7 | 40.4 µM | 62.7 | > 100 | 8.59 | 62.2 | 7.69 | 98.1 | 3.61 | 21.3 | 5.82 | 49.9 µM | 18 | > 100 µM | 51.4 | > 100 | 24.1 | > 100
N#CC(NNC(=O)Cc1ccccc1)c1c(O)ccc2ccccc12 (stereo not drawn) | – | 24.7 | – | 25.8 µM | – | 65.6 | – | 50.9 | – | 41.3 | – | > 100 | – | > 62.9 µM | – | 41.9 µM | – | 31.3 | – | 45
CC(C)(C)c1cc(C(C)(C)C)cc(S(=O)(=O)Nc2cc3ccccc3cc2C(=O)NCCN)c1 | 1.67 | 3.09 | 2.75 | 9.33 µM | 1.45 | 2.88 | 1.75 | 3.22 | 1.73 | 3.24 | 2.16 | 4.85 | 2.4 | 6.23 µM | 1.79 | 3.18 µM | 2.04 | 4.51 | 1.58 | 4.16
CN1C/C=C\CCOc2cccc(c2)-c2ccnc(n2)Nc2cccc(c2)C1 | 0.0789 | 0.393 | 0.0373 | 1.52 µM | 0.0872 | 0.961 | 0.0298 | 0.677 | 0.0349 | 0.227 | 0.0931 | 6.21 | 0.0713 | 0.435 µM | 0.0221 | 0.0501 µM | 0.209 | 2.16 | 0.0545 | 0.169
NS(=O)(=O)c1ccc(NC2(C(=O)O)CCCC2)cc1 | – | > 100 | – | > 100 µM | – | > 100 | – | > 100 | – | > 100 | – | > 100 | – | > 100 µM | – | > 100 µM | – | > 100 | – | > 100
Cn1c2c(c3ccccc31)CC1c3c(c4ccccc4n3C)CC21 (stereo not drawn) | – | > 100 | – | > 100 µM | – | > 100 | – | – | – | > 100 | – | > 100 | – | > 100 µM | – | > 100 µM | – | > 100 | – | > 100
CN1c2ccc(Cl)cc2C(=O)NC1c1ccc([N+](=O)[O-])s1 (stereo not drawn) | – | 34.8 | – | 40.7 µM | – | 57.8 | – | 29 | – | 33.1 | – | 34.8 | – | 36.1 µM | – | 24.6 µM | – | 67.2 | – | 35.4
CN1CCN(CCCOc2ccc3nc(Nc4ccc(Cl)c(C(F)(F)F)c4)ccc3c2)CC1 | 14.2 | 27.7 | 14.9 | 28.4 µM | 15 | 29.1 | 8.44 | 21.7 | 5.46 | 18.8 | 2.4 | 5.78 | 13.3 | 27.1 µM | 12.7 | 28 µM | 18.2 | 33 | 7.09 | 20.5
COC1=C(C)C(=O)c2c(c(COC(N)=O)c3n2CC2C3N2C)C1=O (stereo not drawn) | – | 0.167 | – | 0.059 µM | – | 0.376 | – | 0.0641 | – | 0.453 | – | 0.341 | – | 0.244 µM | – | 0.0671 µM | – | 0.167 | – | < 0.0446
CC(C)(C)c1cc(Br)c(O)c(CN(Cc2cc(C(C)(C)C)cc(Br)c2O)C2CCCCC2)c1 | – | 29.2 | – | 24.7 µM | – | 27.9 | – | 25 | – | 28.8 | – | 28.3 | – | 28.1 µM | – | 22.6 µM | – | 29.2 | – | 20.9

Source: PubChem BioAssay (NCI)
